Source: patent US20210228463A1, “COMPOSITION FOR FAT FORMATION INHIBITION AND BODY FAT REDUCTION, CONTAINING HYDRANGENOL AS ACTIVE INGREDIENT” (COSMAX BIO CO., LTD., priority 2019, published 2021)

How the values were obtained:
[1] = Changes of blood triglyceride and blood cholesterol by WHS; assay type: in vivo; settings: blood, obese mice (HFD) + oral orlistat
Description: To analyze in vivo anti-obesity efficacy of WHS, animal models of obesity were first prepared. 8-week-old male C57BL/6N mice (specific-pathogen-free (SPF) grade, 20±2 g, Orient Bio) were set into 7 groups as follows, and 10 mice per each group were tested: as normal control groups, normal mice (con) with no high fat diet and no administration, and obese mice (HFD) with induction of obesity by 30% high fat diet and no administration, and as a positive control group, obese mice with oral administration of orlistat which is an anti-obesity agent. As experimental groups, obese mice with oral administration of WHS of 75 mg/kg, 150 mg/kg, or 300 mg/kg, and normal mice with oral administration of WHS of 300 mg/kg were used. Further, experiments were performed by dividing mice into those which were administered with WHS for 12 weeks at the same time with induction of obesity, and those which were administered with WHS after induction of obesity for 10 weeks. WHS was orally administered for 5 days per week during the administration period. A dark: light cycle was maintained at intervals of 12 hours: 12 hours, and mice were allowed to free access to water. To analyze the effects of WHS on blood triglyceride and blood cholesterol, a hematological-biochemical test of the WHS-administered group with induction of obesity was performed using a biochemical analyzer (AU480 Chemistry Analyzer, Beckman coulter, Calif., USA).

[2] = tested on: mammalian target of rapamycin (mTOR); assay: Western blotting of p-mTOR in adipocytes; assay type: cell-based; settings: 3T3-L1 differentiated for 10 days, hydrangenol 2.5 ug/ml, 24 hours, FIG. 3
Description: (§1) The mechanism of reducing triglyceride in adipocytes was examined for the hydrangenol-containing hydrangea (Hydrangea serrata) and hydrangenol. A pre-adipocyte 3T3-L1 was differentiated for 10 days and treated with hydrangea (Hydrangea serrata) (25 ug/ml) and hydrangenol (2.5 ug/ml) for 24 hours, respectively. Thereafter, the cells were lysed using a modified LIPA buffer, and each 20 ug thereof was used for analysis. p-mTOR(ab109268, Abcam), p-FOXO1(9461S, Cell Signaling), PPARγ(sc-7273, Santa Cruz), and β-actin(A5316, Sigma) primary antibodies were used for analysis, respectively.

forkhead box 01 (FoxO1) = assay: Western blotting of p-FOXO1 in adipocytes; assay type: cell-based; settings: 3T3-L1 differentiated for 10 days, hydrangenol 2.5 ug/ml, 24 hours, FIG. 3
Description: as §1

PPARγ = assay: Western blotting of PPARγ expression in adipocytes; assay type: cell-based; settings: 3T3-L1 differentiated for 10 days, hydrangenol 2.5 ug/ml, 24 hours, FIG. 3
Description: as §1

3T3-L1 cells = assay: Fat accumulation inhibition in adipocytes (Oil Red O staining); assay type: cell-based; settings: 3T3-L1 adipocytes, hydrangenol 2.5 ug/ml
Description: In this experiment, to induce adipocyte differentiation, 3T3-L1 cells were dispensed onto a plate and cultured in a 10% BS medium until the cell density reached 100%. At the cell differentiation stage, hydrangenol-containing hydrangea (Hydrangea serrata) (25 ug/ml), hydrangenol (2.5 ug/ml) or a positive control pioglatazone (10 uM) was added to a 10% FBS differentiation medium (5 μg/ml of insulin, 1 μM dexametasone, 0.5 mM 3-isobutyl-1-methylxanthine), respectively. After 10 days of treatment oil Red-O staining and quantitative analysis were performed to determine how much fat accumulation was inhibited. For visual evaluation, images were taken after staining, and then the stained cells were completely dried, dissolved in dimethyl sulfoxide (DMSO), transferred to a 96-well plate, and absorbance at 450 nm was measured.

white adipocytes = assay: Adipocyte size-reducing effects of HG; assay type: in vivo, mice; settings: epididymal fat, HG administered; FIG. 16
Description: (§2) To analyze in vivo anti-obesity efficacy of HG, animal models of obesity were prepared. 8-week-old male C57BL/6N mice (SPF grade, 20±2 g, Orient Bio) were set into 7 groups as follows, and 10 mice per each group were tested: as normal control groups, normal mice (con) with no high fat diet and no administration, and obese mice (HFD) with induction of obesity by 30% high fat diet and no administration, and as a positive control group, obese mice with oral administration of orlistat which is an anti-obesity agent. As experimental groups, obese mice with oral administration of HG of 20 mg/kg, 40 mg/kg, or 80 mg/kg, and normal mice with oral administration of HG of 80 mg/kg were used. Mice were administered with HG at the same time with induction of obesity, and HG was administered for 5 days per week for 12 weeks. A dark: light cycle was maintained at intervals of 12 hours: 12 hours, and mice were allowed to free access to water.
For histological analysis, the epididymal fat tissues of mice were fixed in 4% paraformalin. Dehydration was performed several times through graded alcohol series and washing, and each tissue was embedded in paraffin. Each tissue section was cut at a thickness of 4 μm, and stained with hematoxylin and eosin. In order to examine the size of white adipocytes, the adipocyte area of each section was measured with cellSence software (Olympus Co., USA). […]

AMPK = assay: Expression of p-AMPK protein in adipose and liver tissues by HG; assay type: in vivo, mice; settings: HG-treated group, Western blotting, FIG. 18
Description: as §2, with “water. […]” for “water.”
Specifically, adipose and liver tissues were mixed with a protein extraction solution, homogenized using a tissue homogenizer, and then centrifuged at 4° C., 15,000 rpm for 30 minutes to obtain a supernatant, and then a standard curve was created using the Bradford method to quantify protein. […]

SMILES	CHOL [1]	HDL [1]	LDL [1]	TG [1]	phosphorylation of mammalian target of rapamycin (mTOR) [2]	phosphorylation of forkhead box 01 (FoxO1) (forkhead box 01 (FoxO1))	expression level of peroxisome proliferator-activated receptor gamma y (PPAR) (PPARγ)	triglyceride production in adipocytes (3T3-L1 cells)	adipocyte size (white adipocytes)	amount of phosphorylated AMPK protein (AMPK)
CCCCCCCCCCC[C@@H](C[C@@H]1OC(=O)[C@H]1CCCCCC)OC(=O)[C@H](CC(C)C)NC=O [Orlistat, orlistat]	115.63 mg/dL	83.70 mg/dL	8.60 mg/dL	76.40 mg/dL	–	–	–	–	–	–
O=C1OC(c2ccc(O)cc2)Cc2cccc(O)c21 (stereo not shown) [HG, 8-hydroxy-3-(4-hydroxyphenyl)-3,4-dihydroisochromen-1-one]	–	–	–	–	reduce	increase	reduction	suppressed	reduced	increased
